The term melting point denotes the temperature of the solid-liquid transition. With `CSC(=S)c1cccc([N+](=O)[O-])c1`, the melting point came to 38 °C.

In turn, `COc1ccc2cc(COC(C)(C(=O)O)C(F)(F)F)ccc2c1` (configuration not stated) came in with a melting point of 117 to 119 °C.

With `CCOC(=O)Nc1ccc(C(c2ccccc2)n2ccnc2)cc1C=O` (configuration not stated), the melting point stood at 107 °C.

`CCOC(=O)c1ncc2[nH]c3ccc(C(=O)N4CCCCC4)cc3c2c1C` registered a melting point of 212 to 218 °C.

In the case of `CCc1cc2c(=O)n3cc(C(=O)OC)ccc3nc2s1`, the melting point fell in the range of 151 to 152 °C.

In turn, `N#Cc1ccc(COc2cccc(C(=O)Nc3ccc(C#N)cc3)c2)cc1` returned a melting point of 205 to 207 °C.

Turning to `Cc1cc(C)c2c(c1C)OCC2c1ccc(Br)cc1` (configuration not stated), the melting point lay within 72 to 73 °C.

Compound `COC1=C(OC)C(=O)C2=C(CC(CCCCCCCCN3CCN(c4ccccn4)CC3)C2)C1=O` gave a melting point of 80 to 84 °C.

On to `O=C(CC1CCCCC1=O)c1ccc(Cl)cc1` (configuration not stated), for which the melting point fell in the range of 56 to 58 °C.

Take `COCCOc1ccccc1S(=O)(=O)NC(=O)Nc1nc(C)cc(OC)n1`: the melting point was 160 to 162 °C.

The compound `O=C1C=CC(O)(c2cc3ccccc3s2)C=C1` gave a melting point of 185 to 188 °C.

`COc1cc2ccc(C(=O)O)cc2cc1OC` registered a melting point of 245 to 247 °C.

Regarding `CC(C)C[C@H](NC(=O)[C@@H]1CCC(=O)N1C(=O)OCc1ccccc1)C(=O)OC(C)(C)C`, the melting point is 130 to 131 °C.

On to `CC(C)(C)c1cc(CCN=C(O)c2cc(C(O)=NCCc3cc(C(C)(C)C)c(O)c(C(C)(C)C)c3)c(C(=O)O)cc2C(=O)O)cc(C(C)(C)C)c1O`, for which the melting point lay within 231 to 233 °C.

`O=C(Nc1cccnc1)N1CCc2ccccc2CC1` showed a melting point of 144 to 146 °C.

With `CNc1nn(C(=O)NC(C)(C)C)c(=O)n1N`, the melting point is 174 °C.

On to `CCOC(=O)C(C(=O)OCC)N(Cc1ccc(OC)cc1OC)C(=O)CCl`, for which the melting point is 83 to 84 °C.

On to `Cc1cc(O)c(C2C=CN(C)CC2)c(O)c1` (configuration not stated), for which the melting point is 241 to 243 °C.

With `CCOC(=O)C(C#N)=C1CCN(c2ccc(OC)cc2)CC1`, the melting point was 87 °C.

For `CC(C)(C)OC(=O)CC(Cc1ccccc1)NC(=O)C1Cc2ccccc2N1S(=O)(=O)c1ccc(-c2ccc(F)cc2)cc1` (configuration not stated), the melting point lay within 67 to 73 °C.

`O=S(=O)(Nc1ccc2[nH]c3c(c2c1)CCNC3)c1c(Cl)nc2sccn12` gave a melting point of 242 to 244 °C.

On to `CCc1ccc2c(c1)C=Cc1oc(C)nc1C2c1cn(-c2ccnc(NCC(=O)Nc3nc(CC(=O)O)cs3)n2)c(=O)[nH]c1=O` (configuration not stated), for which the melting point lay within 205 to 210 °C.

`OCCN1CCCNC1=S` came in with a melting point of 112 to 114 °C.

The compound `CCOC(=O)Nc1cc(C)cc(Nc2c3cccc(C)c3nc3c(C(=O)NCCN(C)C)cccc23)c1` showed a melting point of 263 to 264 °C.

On to `CC(=O)N1CCC(COC2c3ccccc3C(=O)N2c2ccc3ccc(Cl)nc3n2)CC1` (configuration not stated), for which the melting point is 160 °C.

`O=[N+]([O-])c1ccc(NN=Cc2ncc[nH]2)nc1` returned a melting point of 268 to 269 °C.

In turn, `CSC1=Nc2ccc(Cl)cc2C(=O)N(C)C1` displayed a melting point of 124 to 127 °C.

As to `O=S(=O)(N=CN1CCOCC1)c1nc(-c2ccccc2)ns1`, the melting point was 185 to 187 °C.

`Fc1ccc(Cn2c(NC3CCN(CCOc4nc5ccccc5s4)CC3)nc3ccccc32)cc1` showed a melting point of 147 °C.

For the compound `CCCCCCCc1cn(CC(O)c2ccccc2)c(=N)s1` (configuration not stated), the melting point was 124 °C.

Consider `N=C(N)NC(=O)C[C@H]1c2cc(C(F)(F)F)ccc2C(=O)N1CC(F)(F)F`, for which the melting point was found to be 122 °C.

`CC(C)CCN(CC(O)C(Cc1ccccc1)NC(=O)C(CC(N)=O)NC(=O)c1ccc2ccccc2n1)C(=O)NC(C)(C)C` (configuration not stated): the melting point lay within 93.5 to 95.6 °C.

In turn, `COC1CCCC(C(=O)Nc2ccc(-n3nc(C(F)(F)F)cc3C(F)(F)F)cc2)C1` (configuration not stated) came in with a melting point of 145 to 147 °C.

In turn, `O=[N+]([O-])C=C(NCc1ccc(Cl)nc1)NCc1ccc(Cl)nc1` had a melting point of 238 to 240 °C.

As for `N#Cc1cccc(-c2ccc3cc[nH]c(=O)c3c2)c1`, the melting point was > 300 °C.

In the case of `CS(=O)(=O)c1ccc(-n2nc(C(F)(F)F)cc2-c2ccc(-c3cccs3)cc2)cc1F`, the melting point fell in the range of 75 to 76 °C.

`CC(C)(C(=O)O)c1ccc(CCNC(=O)c2ccc(Cl)cc2)cc1` had a melting point of 234 to 235 °C.

Regarding `CCOC(=O)COCCn1c(=O)[nH]c2ccccc2c1=O`, the melting point is 115 to 116 °C.

Regarding `CC(C)(O)CCCc1onc(-c2ccccc2)c1-c1ccc(S(N)(=O)=O)cc1`, the melting point fell in the range of 184 to 185 °C.

In the case of `Nc1nc2ccccc2c2c1ncn2COCCO`, the melting point lay within 210 to 212 °C.

In turn, `CC(C)(C)c1cc(C(c2ccc(F)cc2)N2CCCCC2)c(O)c(C(C)(C)C)c1` (configuration not stated) returned a melting point of 135 to 136 °C.

Consider `CCN(CC)C(=O)C=Cc1ccccc1`, for which the melting point amounted to 65 °C.

Turning to `CCNc1cccc(-c2ccnc3c(C(=O)c4ccco4)cnn23)c1`, the melting point was in the range of 142 to 143 °C.

`CSc1nc(Cl)cc(-c2ccc(C(F)(F)F)cc2)n1` had a melting point of 93 to 96 °C.

For the compound `CCCc1c(OCCCCCOc2ccccc2CCCCC(=O)O)ccc2c1OCCC2=O`, the melting point was 75 to 76 °C.

The compound `O=C1N(Cc2ccc(O)cc2)c2ccccc2C12COc1cc3c(cc12)CCO3` (configuration not stated) gave a melting point of 226 to 227 °C.

`CCOc1nc(=O)c2cc(C(F)(F)F)cc([N+](=O)[O-])c2s1`: the melting point fell in the range of 146 to 148 °C.

The compound `O=C1CCC(OCc2ccccc2)N1S(=O)(=O)c1ccccc1` (configuration not stated) came in with a melting point of 80 to 81 °C.

`Cc1ccc(S(=O)(=O)NC(=O)Nc2ccc(Br)c(C)c2)cc1`: the melting point fell in the range of 178 to 180 °C.

`CC[C@H]1COC(=O)N1c1nc(-c2ccc(C#N)cc2)c(Cl)s1` showed a melting point of 157 to 159 °C.

In turn, `CC(C)CC(=O)Oc1ccc2cc(C(=N)N)ccc2c1` yielded a melting point of 250 to 252 °C.

Compound `Fc1ccc(-c2nc3ccccn3c2Br)c(F)c1` yielded a melting point of 144 °C.

For `CC(CN(C)C)N1c2ccccc2Sc2ccc(C(=O)NCC3CC3)cc21` (racemic), the melting point was 90 °C.

Take `NC(=O)c1ccc2[nH]cc(C3=CCNCC3)c2c1`: the melting point lay in the range of 225 to 230 °C.

Compound `CC1(C)CCC(C)(C)c2cc(CC#Cc3ccc(C(=O)O)c(O)c3)ccc21` showed a melting point of 178 to 180 °C.

The compound `COc1ccc(Cl)cc1CNc1nc(Cl)nc2c1ncn2[C@@H]1SC[C@@H](O)[C@H]1O` yielded a melting point of 189 to 190 °C.

For the compound `CC(=O)COc1ccc(N2N=C3c4cc(F)ccc4CCC3CC2=O)cc1` (configuration not stated), the melting point was 195 to 196 °C.

`COC(=O)Nc1nn2cccc2c(=O)[nH]1` returned a melting point of 232 °C.

Compound `Cc1ccc(S(=O)(=O)N(c2ccc(Cl)cc2C(N)=O)C(C)C)cc1` came in with a melting point of 177 to 178 °C.

`Cc1nc2cc(C(F)(F)F)ccc2n1-c1ccc(OC(C)CCC(=O)O)cc1` (configuration not stated) came in with a melting point of 67 to 68 °C.

With `O=c1[nH]c2ncc(Br)cc2o1`, the melting point lay in the range of 229 to 230 °C.

Take `CC(C)(O)c1ccc(CNC(=O)c2cccnc2Oc2cccc(F)c2)cc1`: the melting point fell in the range of 106 to 108 °C.

For `COc1ccc(NC(=O)c2c(Cl)cccc2Cl)c2nccc(NNC(C)=O)c12`, the melting point was > 250 °C.

Compound `CCOc1ccc2nc(SC(C)(C(=O)O)c3ccccc3)sc2c1` (configuration not stated) displayed a melting point of 152 to 153 °C.

Compound `O=C(O)C1Cc2cc3c(=O)c4ccccc4oc3c(Cl)c2O1` (configuration not stated) registered a melting point of 290 to 293 °C.

In turn, `N#Cc1cnn2c1N(C(=O)CN1CCN(CC#CCN3CCCC3=O)CC1)CC=C2c1cccc(C(F)(F)F)c1` returned a melting point of 124 to 126 °C.

`C(#Cc1ccc(C2=CC(c3ccc(C#Cc4ccccc4)cc3)N(c3ccccc3)N2)cc1)c1ccccc1` (configuration not stated): the melting point fell in the range of 200 to 204 °C.

`O=C(O)c1cnn2c(C(F)F)cc(-c3ccc(OC(F)(F)F)cc3)nc12` returned a melting point of 231 °C.

Consider `CC(NS(=O)(=O)c1cc(C(=O)Cl)ccc1Cl)c1ccccc1` (configuration not stated), for which the melting point worked out at 112 °C.

Compound `NC(=O)OC(CC(=NNC(N)=S)c1ccccc1)c1ccccc1` (configuration not stated) showed a melting point of 149 to 150 °C.

In turn, `CCCN1CC(c2ccc(S(C)(=O)=O)cc2)=C(c2cccc(C)c2)C1=O` gave a melting point of 120 to 122 °C.

`O=C1N(Cc2ccc(-c3cccc(Cl)c3)o2)c2ccccc2C12COc1cc3c(cc12)OCO3` (configuration not stated) gave a melting point of 205 to 207 °C.

Compound `COc1ccccc1N1CCN(CCn2c(=O)c3cscc3n(C)c2=O)CC1` showed a melting point of 167 to 168 °C.

On to `Cc1cc(N)cc(C)c1-c1ccc(-c2c(C)cc(N)cc2C)o1`, for which the melting point fell in the range of 144 to 146 °C.

For `CCOC(=O)COn1ccncc1=O`, the melting point fell in the range of 98 to 100 °C.

`CCCN(CCC)c1c([N+](=O)[O-])cc(S(=O)(=O)N(C)C(=O)OC)cc1[N+](=O)[O-]` showed a melting point of 90 to 94 °C.

As to `O=C(O)c1cccc(CN2C(=O)N(c3ccccc3Br)Cc3cnc(Nc4ccccc4)nc32)c1`, the melting point was 180 to 183 °C.

`CCC1(O)C(C)=CC(=O)N1Cc1ccccc1` (configuration not stated) showed a melting point of 129 to 132 °C.

Turning to `OCCON=Cc1cncc(-c2ccccc2)c1`, the melting point fell in the range of 102 to 104 °C.

`Cc1cc(Cn2nnn(-c3ccc(C(F)(F)F)cc3)c2=O)ccc1N`: the melting point lay within 210 to 211 °C.

In turn, `CCC(=O)c1cc(C(=O)C(=O)c2cccc(OC)c2)cn1CC` registered a melting point of 97 °C.

In turn, `CCCOc1ccc(C(=O)OC)cc1-c1ccc(C#N)c(=O)[nH]1` came in with a melting point of 201 to 203 °C.

In the case of `O=C(O)CC(NC(=O)OCc1ccccc1)C(=O)CNS(=O)(=O)CCc1ccccc1` (configuration not stated), the melting point was in the range of 100 to 101 °C.

In turn, `O=C(NC1CCN(CCNC(=O)c2n[nH]c3ccccc23)CC1)OCc1ccccc1` came in with a melting point of 184 to 187 °C.

`C#CCN1CCN(CC(=O)N2c3ccccc3C(=O)Nc3cccnc32)CC1` gave a melting point of 249 to 250 °C.

Turning to `CC(C)(C)OC(=O)N1CCC(c2nc3cc(-c4ccc(C#N)cc4)ccc3o2)CC1`, the melting point is 137 to 141 °C.

Compound `Cn1cc(C(=S)NCc2ccc(Cl)cc2)c(=O)c2cc(C#CCO)ccc21` returned a melting point of 200 to 201 °C.

Values taken from a melting point compilation (Tetko et al.; mined from patent text by program, amines drawn as free bases though some values may be those of a salt).
